What was measured:
[1] = test system: IPOSS (Morningglory Spp.); experiment: Preemergence herbicidal evaluation; assay type: in vivo, Ipomoea Spp.; conditions: rated 4-5 weeks after treatment
Text: (§1) Results of herbicide evaluation are expressed on a rating scale (0-9). The scale is based upon a visual observation of plant stand, vigor, malformation, size, chlorosis and overall plant appearance as compared with a control.
The preemergence herbicidal activity of the test compounds of the present invention is exemplified by the following tests in which the seeds of a variety of monocotyledonous and dicotyledonous plants are separately mixed with potting soil and planted on top of approximately one inch of soil in separate pint cups. After planting, the cups are sprayed with the selected aqueous acetone solution containing test compound in sufficient quantity to provide the equivalent of about 0.0156 to 0.500 kg per hectare of test compound per cup. The treated cups are then placed on greenhouse benches, watered and cared for in accordance with conventional greenhouse procedures. From four to five weeks after treatment, the tests are terminated and each cup is examined and rated according to the rating system provided in Example 37.
The compounds evaluated are reported by compound number given in Example 37.

MOOVA (Monochoria) = experiment: Postemergence weed control under flooded paddy conditions; assay type: in vivo, Monochoria vaginalis; conditions: postemergence weeds, 3-4 weeks after treatment
Procedure, shortened: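 Herbicidal effect is judged by eye on a 0–9 scale versus control, 3–4 weeks after dosing. Dosing is into flood water kept 1.5–3 cm over the soil, at about 0.0313–0.500 kg/ha in aqueous/acetone 50/50 v/v, on 3–5 cm weeds and 1.5–2.5-leaf rice seedlings.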

[2] = test system: TRZAWR (Wheat, Winter, cv Riband); experiment: Preemergence herbicidal evaluation; assay type: in vivo, Triticum aestivum; conditions: rated 4-5 weeks after treatment
Procedure, shortened: (§2)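 Scores use a 0–9 visual scale covering stand, vigor, malformation, size and chlorosis relative to controls, rated four to five weeks after treatment. Before emergence, soil-planted seeds were sprayed with compound in aqueous acetone at roughly 0.0156–0.500 kg/ha and held in the greenhouse.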

ABUTH (Velvetleaf) = experiment: Preemergence herbicidal evaluation; assay type: in vivo, Abutilon theophrasti; conditions: rated 4-5 weeks after treatment
Procedure, shortened: as §2

[3] = test system: SAGPY (Arrowhead (Pygmaea)); experiment: Preemergence weed control under flooded paddy conditions; assay type: in vivo, Sagittaria pygmaea; conditions: rated 3-4 weeks after treatment
Procedure, shortened: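 Seeds or propagules sown in silt loam kept flooded 1.5-3 cm; compounds in 50/50 acetone/water pipetted into flood water at about 0.0313 to 0.500 kg/ha. Greenhouse; visual 0-9 rating versus untreated control 3-4 weeks after treatment.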

[4] = test system: IPOSS (Morningglory Spp.); experiment: Postemergence herbicidal evaluation; assay type: in vivo, Ipomoea Spp.
Protocol: In the tests, seedling plants are grown in jiffy flats for about two weeks. The test compounds are dispersed in 50/50 acetone/water mixtures containing 0.5% TWEEN®20, a polyoxyethylene sorbitan monolaurate surfactant of Atlas Chemical Industries, in sufficient quantities to provide the equivalent of about 0.0156 kg to 0.500 kg per hectare of active compound when applied to the plants through a spray nozzle operating at 40 psi for a predetermined time. After spraying, the plants are placed on greenhouse benches and are cared for in accordance with conventional greenhouse procedures. From four to five weeks after treatment, the seedling plants are examined and rated according to the rating system set forth below. Where more than one test is involved for a given compound, the data are averaged.
Plant species employed in these evaluations are reported by header abbreviation, common name and scientific name.
as §1

CYPIR (Rice Flatsedge) = experiment: Preemergence weed control under flooded paddy conditions; assay type: in vivo, Cyperus iria; conditions: rated 3-4 weeks after treatment
Procedure, shortened: (§3)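 Visual injury scored 0-9 against control three to four weeks post-treatment, greenhouse-grown. Application: acetone/water (50/50) solutions dosed directly into flood water (1.5-3 cm over silt loam, planted top 0.5 cm), roughly 0.0313 to 0.500 kg/ha active ingredient.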

[5] = test system: ECHORC (Watergrass (Calif.)); experiment: as above; assay type: in vivo, Echinochloa oryzoides; conditions: rated 3-4 weeks after treatment
Procedure, shortened: as §3

In the case of C=CCN1C(=O)CSC1=Nc1cc(N2C(=O)C3=C(CCCC3)C2=O)c(F)cc1Cl [Compound 2, N-{5-[(3-allyl-4-oxo-2-thiazolidinylidene)amino]-4-chloro-2-fluorophenyl}-1-cyclohexene-1,2-dicarboximide], the “IPOSS preemergence herbicidal rating” value ([1]; rate 0.0313 kg/ha) is reported as 0.0, the “IPOSS preemergence herbicidal rating” value ([1]; rate 0.0625 kg/ha) is reported as 0.0 and the “IPOSS preemergence herbicidal rating” value ([1]; rate 0.1250 kg/ha) is reported as 0.0. The “IPOSS preemergence herbicidal rating” value ([1]; rate 0.2500 kg/ha) was 0.0, the “IPOSS preemergence herbicidal rating” value ([1]; rate 0.5000 kg/ha) was 0.0 and the “Herbicidal rating MOOVA” value (MOOVA (Monochoria); rate 0.0313 kg/ha) was 2.0. For the same molecule, the “Herbicidal rating MOOVA” value (MOOVA (Monochoria); rate 0.0625 kg/ha) was 4.5, the “Herbicidal rating MOOVA” value (MOOVA (Monochoria); rate 0.1250 kg/ha) was 5.5 and the “Herbicidal rating MOOVA” value (MOOVA (Monochoria); rate 0.2500 kg/ha) was 9.0. The “Herbicidal rating MOOVA” value (MOOVA (Monochoria); rate 0.5000 kg/ha) was 9.0, the “TRZAWR preemergence herbicidal rating” value ([2]; rate 0.0313 kg/ha) was 0.0 and the “TRZAWR preemergence herbicidal rating” value ([2]; rate 0.0625 kg/ha) was 0.0. For the same molecule, the “TRZAWR preemergence herbicidal rating” value ([2]; rate 0.1250 kg/ha) was 0.0, the “TRZAWR preemergence herbicidal rating” value ([2]; rate 0.2500 kg/ha) was 0.0 and the “TRZAWR preemergence herbicidal rating” value ([2]; rate 0.5000 kg/ha) was 0.0. The “ABUTH preemergence herbicidal rating” value (ABUTH (Velvetleaf); rate 0.0313 kg/ha) was 0.0, the “ABUTH preemergence herbicidal rating” value (ABUTH (Velvetleaf); rate 0.0625 kg/ha) was 0.0 and the “ABUTH preemergence herbicidal rating” value (ABUTH (Velvetleaf); rate 0.5000 kg/ha) was 4.0. For the same molecule, the “Herbicidal rating SAGPY” value ([3]; 0.0313 kg/ha) was 0.0, the “Herbicidal rating SAGPY” value ([3]; 0.0625 kg/ha) was 0.0 and the “Herbicidal rating SAGPY” value ([3]; 0.1250 kg/ha) was 0.0. For the same molecule, the “Herbicidal rating SAGPY” value ([3]; 0.2500 kg/ha) was 0.0, the “Herbicidal rating SAGPY” value ([3]; 0.5000 kg/ha) was 0.0 and the IPOSS herbicidal rating ([4]; rate 0.0157 kg/ha) was 4.0. For the same molecule, the IPOSS herbicidal rating ([4]; rate 0.0313 kg/ha) was 4.0, the IPOSS herbicidal rating ([4]; rate 0.0625 kg/ha) was 4.0 and the IPOSS herbicidal rating ([4]; rate 0.1250 kg/ha) was 6.0. The IPOSS herbicidal rating ([4]; rate 0.2500 kg/ha) was 9.0, the IPOSS herbicidal rating ([4]; rate 0.5000 kg/ha) was 9.0 and the “Herbicidal rating CYPIR” value (CYPIR (Rice Flatsedge); 0.0313 kg/ha) was 0.0. The “Herbicidal rating CYPIR” value (CYPIR (Rice Flatsedge); 0.0625 kg/ha) was 0.0, the “Herbicidal rating CYPIR” value (CYPIR (Rice Flatsedge); 0.1250 kg/ha) was 0.0 and the “Herbicidal rating CYPIR” value (CYPIR (Rice Flatsedge); 0.2500 kg/ha) was 0.0. For the same molecule, the “Herbicidal rating CYPIR” value (CYPIR (Rice Flatsedge); 0.5000 kg/ha) was 1.0, the “Herbicidal rating ECHORC” value ([5]; 0.0313 kg/ha) was 2.0 and the “Herbicidal rating ECHORC” value ([5]; 0.0625 kg/ha) was 2.0. For the same molecule, the “Herbicidal rating ECHORC” value ([5]; 0.1250 kg/ha) was 7.0, the “Herbicidal rating ECHORC” value ([5]; 0.2500 kg/ha) was 8.0 and the “Herbicidal rating ECHORC” value ([5]; 0.5000 kg/ha) was 9.0.

— patent publication US20020137929A1, “1 - (3-heterocyclylphenyl) isothiourea, -isourea, -guanidine and -amidine herbicidal agents” (Intellectual Property Department, BASF Aktiengesellschaft, priority 1998, published 2002)
